Test results: patent US9994587B2, “HIV protease inhibitors” (priority 2014, dated 2018)

These compounds were tested on HIV-1 (NL4-3 strain) (assay: Viral Kinetics GFP Reporter (ViKinG) assay). Conditions: Human immunodeficiency virus 1, NL43; 50% NHS; MT4-GFP cells infected with HIV-1 NL4-3; mean of at least two independent experiments.
Type: cell-based
Text: Viral Kinetics GFP Reporter (ViKinG) Assay
The ViKinG assay is an in vitro kinetic assay that employs the MT4-gag-GFP reporter cell line (Wang et al., “Assessment of the susceptibility of mutant HIV-1 to antiviral agents.” J Virological Methods 165:230-37 (2010)) to quantify the number of new cells infected in each round of replication. The purpose of the ViKinG assay is to identify agents that inhibit HIV progression. Briefly, HIV infection results in tat transactivation of the stably expressed HIV LTR promoter to drive gagGFP expression. Thus, an increase in the number of GFP-MT4 cells results following HIV infection.
MT4-GFP cells (250,000 cells/ml) were bulk-infected with HIV-1 (NL4-3 strain) at low multiplicity of infection (MOI) in RPMI+10% FBS for 24 hours. Cells were then washed once in RPMI+10% FBS and resuspended RPMI+10% or 50% normal human serum (NHS). Test compounds were serial-diluted in DMSO on an ECHO® liquid handling platform (Labcyte Corp., Sunnyvale, Calif.), along with a triple drug control (integrase, protease and NNRTI compounds). The infected MT4-GFP cells were added to a 384-well poly-D-lysine coated black plate with clear bottom in which the diluted test compounds were placed. The cells were seeded at 8,000 cells per well and the final DMSO concentration was 0.4%. The infected cells (Green GFP cells) were quantified at both 24 and 48 hours post incubation using Acumen® eX3 (TTP Labtech Ltd., Hertfordshire, United Kingdom). Viral reproductive ratio (R0) was determined using the number of infected cells at 48 hours divided by the number of infected cells at 24 hours. Percent viral growth inhibition was calculated by [1−(R−Rtripledrug)/(RDMSO−Rtripledrug)]*100. Compound potency IP or IC50 was determined by a 4-parameter dose response curve analysis.

| SMILES | IC50 |
| --- | --- |
| N[C@H](C(=O)Nc1cncc(F)c1CC[C@@H]1CNCC2(CCOCC2)O1)C(c1ccc(F)cc1)c1ccc(F)cc1 [Example 101, N-(4-{2-[(2R)-1,9-dioxa-4-azaspiro[5.5]undec-2-yl]ethyl}-5-fluoropyridin-3-yl)-4-fluoro-β-(4-fluorophenyl)-L-phenylalaninamide] | 110 nM |
| COC(=O)N[C@H](C(=O)Nc1cccc(F)c1CC[C@@H]1CNCC2(CCCC(=O)C2)O1)[C@@H](c1ccc(F)cc1)c1cc(F)cc(F)c1 (stereo partly drawn) [Example 92, Methyl ((1S,2S)-1-(3,5-difluorophenyl)-3-((3-fluoro-2-(2-((2R)-8-oxo-1-oxa-4-azaspiro[5.5]undecan-2-yl)ethyl)phenyl)amino)-1-(4-fluorophenyl)-3-oxopropan-2-yl)carbamate] | 35 nM |
| COC(=O)N[C@H](C(=O)Nc1cccc(F)c1CC[C@@H]1CNCC2(CCOCC2)O1)[C@@H](c1ccc(Cl)cc1)C1CCOCC1 [Example 161, methyl[(1S,2R)-2-(4-chlorophenyl)-1-[(2-{2-[(2R)-1,9-dioxa-4-azaspiro[5.5]undec-2-yl]ethyl}-3-fluorophenyl)carbamoyl]-2-(tetrahydro-2H-pyran-4-yl)ethyl]carbamate] | 130 nM |
| COC(=O)N[C@H](C(=O)Nc1cccc(F)c1CC[C@@H]1CNCC2(CCOC2)O1)[C@@H](c1ccc(Cl)cc1)c1cc(F)cc(F)c1 (stereo partly drawn) [Example 163, methyl{(1S,2S)-2-(4-chlorophenyl)-2-(3,5-difluorophenyl)-1-[(2-{2-[(7R)-2,6-dioxa-9-azaspiro[4.5]dec-7-yl]ethyl}-3-fluorophenyl)carbamoyl]ethyl}carbamate] | 150 nM |
| COC(=O)N[C@H](C(=O)Nc1cncc(F)c1CC[C@@H]1CNCC2(CCOCC2)O1)[C@@H](c1ccc(Cl)cc1)c1cccc(OC(F)(F)F)c1 [Example 157, methyl{(1S,2S)-2-(4-chlorophenyl)-1-[(4-{2-[(2R)-1,9-dioxa-4-azaspiro[5.5]undec-2-yl]ethyl}-5-fluoropyridin-3-yl)carbamoyl]-2-[3-(trifluoromethoxy)phenyl]ethyl}carbamate] | 210 nM |
| CS(=O)(=O)N1CCC2(CC1)CNC[C@@H](CCc1c(F)cncc1NC(=O)[C@@H](N)[C@@H](c1ccc(Cl)cc1)c1cccc(OC(F)(F)F)c1)O2 [Example 154, (βS)-β-(4-chlorophenyl)-N-(5-fluoro-4-{2-[(2R)-9-(methylsulfonyl)-1-oxa-4,9-diazaspiro[5.5]undec-2-yl]ethyl}pyridin-3-yl)-3-(trifluoromethoxy)-L-phenylalaninamide] | 300 nM |
| N[C@H](C(=O)Nc1cncc(F)c1CC[C@@H]1CNCC2(CCOCC2)O1)[C@@H](c1ccc(Cl)cc1)c1cc(F)cc(F)c1 [Example 155, (βS)-4-chloro-β-(3,5-difluorophenyl)-N-(4-{2-[(2R)-1,9-dioxa-4-azaspiro[5.5]undec-2-yl]ethyl}-5-fluoropyridin-3-yl)-L-phenylalaninamide] | 140 nM |
| N[C@H](C(=O)Nc1cccc(F)c1CC[C@@H]1CNCC2(CCOCC2)O1)[C@@H](c1ccc(Cl)cc1)C1CCOCC1 [Example 159, (βR)-4-chloro-N-(2-{2-[(2R)-1,9-dioxa-4-azaspiro[5.5]undec-2-yl]ethyl}-3-fluorophenyl)-β-(tetrahydro-2H-pyran-4-yl)-L-phenylalaninamide] | 490 nM |
| COC(=O)N[C@H](C(=O)Nc1cncc(F)c1CC[C@@H]1CNCC2(CCOCC2)O1)[C@@H](c1ccc(Cl)cc1)C1CCOCC1 [Example 160, methyl[(1S,2R)-2-(4-chlorophenyl)-1-[(4-{2-[(2R)-1,9-dioxa-4-azaspiro[5.5]undec-2-yl]ethyl}-5-fluoropyridin-3-yl)carbamoyl]-2-(tetrahydro-2H-pyran-4-yl)ethyl]carbamate] | 350 nM |
| CC(=O)N1CCC2(CC1)CNC[C@@H](CCc1c(F)cncc1NC(=O)[C@@H](N)[C@@H](c1ccc(Cl)cc1)c1cc(F)cc(F)c1)O2 [Example 152, (βS)-N-(4-{2-[(2R)-9-acetyl-1-oxa-4,9-diazaspiro[5.5]undec-2-yl]ethyl}-5-fluoropyridin-3-yl)-4-chloro-β-(3,5-difluorophenyl)-L-phenylalaninamide] | 320 nM |
| CC(=O)N1CCC2(CC1)CNC[C@@H](CCc1c(F)cccc1NC(=O)[C@@H](N)[C@@H](c1ccc(Cl)cc1)c1cc(F)cc(F)c1)O2 [Example 95, (2S,3S)—N-(2-(2-((R)-9-Acetyl-1-oxa-4,9-diazaspiro[5.5]undecan-2-yl)ethyl)-3-fluorophenyl)-2-amino-3-(4-chlorophenyl)-3-(3,5-difluorophenyl)propanamide] | 150 nM |
| N[C@H](C(=O)Nc1cncc(F)c1CC[C@@H]1CNCC2(CCCC2)O1)C(c1ccc(F)cc1)c1ccc(F)cc1 [Example 150, 4-fluoro-N-(5-fluoro-4-{2-[(7R)-6-oxa-9-azaspiro[4.5]dec-7-yl]ethyl}pyridin-3-yl)-β-(4-fluorophenyl)-L-phenylalaninamide] | 270 nM |
| COC(=O)N[C@H](C(=O)Nc1cccc(F)c1CC[C@@H]1CNCC2(CCN(C(C)=O)CC2)O1)[C@@H](c1ccc(Cl)cc1)c1cc(F)cc(F)c1 [Example 151, methyl{(1S)-2-[(2-{2-[(2R)-9-acetyl-1-oxa-4,9-diazaspiro[5.5]undec-2-yl]ethyl}-3-fluorophenyl)amino]-1-[(S)-(4-chlorophenyl)(3,5-difluorophenyl)methyl]-2-oxoethyl}carbamate] | 170 nM |
| N[C@H](C(=O)Nc1cncc(F)c1CC[C@@H]1CNCC2(CCOCC2)O1)[C@@H](c1ccc(Cl)cc1)C1CCOCC1 [Example 158, (βR)-4-chloro-N-(4-{2-[(2R)-1,9-dioxa-4-azaspiro[5.5]undec-2-yl]ethyl}-5-fluoropyridin-3-yl)-β-(tetrahydro-2H-pyran-4-yl)-L-phenylalaninamide] | 390 nM |
| COC(=O)N[C@H](C(=O)Nc1cncc(F)c1CC[C@@H]1CNCC2(CCN(C(C)=O)CC2)O1)[C@@H](c1ccc(Cl)cc1)c1cc(F)cc(F)c1 [Example 153, methyl{(1S)-2-[(4-{2-[(2R)-9-acetyl-1-oxa-4,9-diazaspiro[5.5]undec-2-yl]ethyl}-5-fluoropyridin-3-yl)amino]-1-[(S)-(4-chlorophenyl)(3,5-difluorophenyl)methyl]-2-oxoethyl}carbamate] | 310 nM |
| COC(=O)N[C@H](C(=O)Nc1cccc(F)c1CC[C@@H]1CNCC2(CCOCC2)O1)[C@@H](c1ccc(Cl)cc1)c1cc(F)cc(F)c1 [Example 97, methyl {(1S,2S)-2-(4-chlorophenyl)-2-(3,5-difluorophenyl)-1-[(2-{2-[(2R)-1,9-dioxa-4-azaspiro[5.5]undec-2-yl]ethyl}-3-fluorophenyl)carbamoyl]ethyl}carbamate] | 55 nM |
